Target: human norepinephrine transporter (Homo sapiens (Human), UniProt P23975)
Experiment: Human NET (norepinephrine transporter) uptake assay
Format: cell-based
Settings: comparison in words, used to assign configuration
Procedure: This protocol was designed to measure inhibition of uptake by the human norepinephrine transporter. […] The Assay Buffer (AB) was 1×HBSS and 0.02 M HEPES.
The HEK293F cells were transfected with the human norepinephrine transporter and frozen in 1 mL aliquots at about 1E+07 cells/mL. On the day of the experiment, the cells were removed from −80° C. or liquid nitrogen and thawed in a room temperature water bath. The cells were dilute to about 1-2E+06 with Freestyle medium. A 1 mL sample (1:2 dilution) was prepared, and the cells were counted. The cells were spun at 1100 rpm for 5 minutes, and the medium was aspirated off. The cells were resuspend in medium at 1.5E+06 cells/mL for about 60,000 cells per well. 40 μL of cells were dispensed per well in the Biocoat plates. The plates were spun at 1100 rpm for 1 minute to improve homogeneity of the cell layer and were incubated at 37° C. for a minimum of 3 hours.
12 μL of test compound (10 mM) in DMSO was added to the wells, and nomifensine was used as a control. […] The neurotransmitter transporter dye was prepared in AB prior to use.
Due to the proprietary nature of the dye formulation, all dye concentrations were expressed as a percentage of the vendor-recommended dye reconstitution. Thus, the above calculations were valid when both [dye] and Km were expressed in the same units (%). Compounds were tested in triplicate (n=3).

human norepinephrine transporter, sequence (P23975 whole entry): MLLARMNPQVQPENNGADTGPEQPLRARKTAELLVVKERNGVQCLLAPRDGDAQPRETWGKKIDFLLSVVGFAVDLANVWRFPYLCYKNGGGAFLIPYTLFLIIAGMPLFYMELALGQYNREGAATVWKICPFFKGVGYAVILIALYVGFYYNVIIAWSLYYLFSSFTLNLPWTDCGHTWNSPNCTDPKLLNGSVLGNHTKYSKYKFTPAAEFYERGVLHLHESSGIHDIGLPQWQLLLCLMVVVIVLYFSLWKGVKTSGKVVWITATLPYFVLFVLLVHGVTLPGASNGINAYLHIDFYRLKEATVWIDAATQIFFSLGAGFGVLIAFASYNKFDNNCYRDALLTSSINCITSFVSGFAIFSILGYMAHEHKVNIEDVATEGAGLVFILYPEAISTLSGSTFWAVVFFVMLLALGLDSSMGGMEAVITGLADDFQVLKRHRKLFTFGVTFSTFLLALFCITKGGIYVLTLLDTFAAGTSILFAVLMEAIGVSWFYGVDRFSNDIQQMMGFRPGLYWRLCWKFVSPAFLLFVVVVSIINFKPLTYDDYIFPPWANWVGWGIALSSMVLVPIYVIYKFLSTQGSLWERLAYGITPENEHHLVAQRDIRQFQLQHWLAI

Compound | potency at hNET relative to the other enantiomer or epimer
CNC[C@H](c1ccc2ccccc2c1)[C@H](O)c1cc(F)cc(F)c1 (single isomer, unassigned) [compound 37] | more potent
CNC[C@@H](c1ccc(Cl)c(Cl)c1)[C@@H](O)c1cccc([S+](C)[O-])c1 (single isomer, unassigned) [compound 116] | equipotent
CNCC(c1ccc(Br)c(Cl)c1)[C@H](O)c1ccccc1 (stereo partly drawn) [compound 16] | more potent
CNC[C@H](c1ccc(Br)c(Cl)c1)[C@@H](O)c1ccccc1 [compound 21] | more potent
CNC[C@H](c1ccc2ccccc2c1)[C@H](O)c1ccc(Cl)nc1 [compound 26] | higher inhibitory activity
CNCC(CCc1ccccc1)[C@@H](O)c1ccccc1 (stereo partly drawn) [compound 27] | more potent
CNC[C@H](c1ccc2ccccc2c1)[C@H](O)c1ccccc1C [compound 28] | more potent
CNCC(Cc1ccccc1C)c1ccc2ccccc2c1 (stereo not drawn) [compound 39] | more potent
C[C@](CN)(Cc1cccnc1)c1ccc2ccccc2c1 [compound 42] | more potent
CNCC(Cc1cccnc1)c1ccc2ccccc2c1 (stereo not drawn) [compound 48] | more potent
CNC[C@@H](c1ccc2ccccc2c1)[C@@H](O)c1cccnc1 [compound 49] | more potent
CNCC(Cc1ccccc1O)c1ccc2ccccc2c1 (stereo not drawn) [compound 52] | more potent
CNC[C@H](c1ccc(OC)c(C)c1)[C@H](O)c1cccnc1 [compound 55] | more potent
CNCC(Cc1ccccc1OC)c1ccc2ccccc2c1 (stereo not drawn) [compound 57] | more potent
CNC[C@H](c1ccc2ccccc2c1)[C@@H](O)c1ccccc1F [compound 60] | more potent
CNC[C@H](c1ccc(Cl)c(Cl)c1)[C@H](O)c1cccc(Br)c1 [compound 76] | more potent
CNC[C@H](c1ccc(Cl)c(Cl)c1)[C@@H](O)c1cccc(NC(C)=O)c1 [compound 94] | more potent

Compound | potency at hNET relative to the other enantiomer or epimer
CNC[C@@H](c1ccc2ccccc2c1)[C@H](O)c1ccccc1F [compound 96] | less potent
CNC[C@H](c1ccc(Cl)c(Cl)c1)[C@@H](O)c1ccccc1SC [compound 97] | more potent
CNC[C@@H](c1ccc(Cl)c(Cl)c1)[C@H](O)c1cccc(NC(C)=O)c1 [compound 98] | less potent
CNC[C@H](c1ccc(Cl)c(Cl)c1)[C@H](O)c1cccc(S(C)(=O)=O)c1 [compound 101] | higher potency
CNC[C@H](c1ccc(Cl)c(Cl)c1)[C@H](O)c1cccc([N+](=O)[O-])c1 [compound 102] | more potent
CNC[C@@H](c1ccc2ccccc2c1)[C@@H](O)c1cccnc1 [compound 103] | less potent
CNC[C@H](c1ccc(Cl)c(Cl)c1)[C@@H](O)c1cccnc1OC [compound 104] | higher inhibitory activity
CNC[C@@H](c1ccc(Cl)c(Cl)c1)[C@@H](O)c1ccsc1 [compound 106] | lower potency
CNC[C@@H](c1ccc(Br)c(Cl)c1)[C@@H](O)c1ccccc1 [compound 110] | lower potency
CNC[C@@H](c1ccc2ccccc2c1)[C@@H](O)c1cncc(OC)c1 [compound 122] | lower inhibitory activity
CNC[C@@H](c1ccc(Cl)c(Cl)c1)[C@@H](O)c1cccc(N2CCOCC2)c1 [compound 125] | lower inhibitory activity
CNC[C@@H](c1ccc(Cl)c(Cl)c1)[C@@H](O)c1ccccc1[S+](C)[O-] (stereo partly drawn) [compound 128] | less potent
CNC[C@@H](c1ccc2ccccc2c1)[C@H](O)c1cc(F)cc(F)c1 [compound 142] | less potent
CNCC(CCc1ccccc1)[C@@H](O)c1ccccc1 (stereo partly drawn) [compound 147] | lower potency
CNC[C@H](c1ccc(Cl)c(Cl)c1)[C@H](O)c1cccc(I)c1 [compound 151] | higher potency
CNC[C@H](c1ccc(Cl)c(Cl)c1)[C@@H](O)c1ccccc1I [compound 152] | higher potency
CNC[C@@H](c1ccc(Cl)c(Cl)c1)[C@@H](O)c1cccc(SC)c1 [compound 154] | lower potency

More lines, now with the values ahead:

potency at hNET relative to the other enantiomer or epimer | Compound
equipotent | O[C@@H](c1ccccc1)[C@@H](CNCC(F)(F)F)c1ccc2ccccc2c1 (single isomer, unassigned) [compound 130]
similar | CNC[C@H](c1ccc(Cl)c(Cl)c1)[C@H](O)c1cccc(N(C)C)c1 (single isomer, unassigned) [compound 168]
more potent | CNCC(Cc1ccccc1CO)c1ccc2ccccc2c1 (stereo not drawn) [compound 2]
more potent | CNC[C@H](c1ccc(Cl)c(Cl)c1)[C@H](O)c1ccccc1 [compound 10]
more potent | CNC[C@H](c1ccc2ccccc2c1)[C@H](O)c1ccccc1F [compound 15]
higher potency | CNC[C@@H](Cc1ccc(C)s1)c1ccc2ccccc2c1 [compound 44]
more potent | CNC[C@H](c1ccc(Cl)c(Cl)c1)[C@@H](O)c1ccccc1[N+](=O)[O-] [compound 65]
less potent | CNCC(CCc1ccccc1)[C@H](O)c1ccccc1 (stereo partly drawn) [compound 66]
more potent | CNC[C@H](c1ccc(Cl)c(Cl)c1)[C@@H](O)c1ccccc1 [compound 70]
less potent | CNC[C@@H](c1ccc2ccccc2c1)[C@@H](O)c1ccccc1F [compound 78]
more potent | CNCC(C[C@H](O)c1ccccc1)c1ccc2ccccc2c1 (stereo partly drawn) [compound 85]
less potent | CNCC(Cc1ccccc1CO)c1ccc2ccccc2c1 (stereo not drawn) [compound 90]
more potent | CNC[C@H](c1ccc2ccccc2c1)[C@H](O)c1cncc(OC)c1 [compound 92]
less potent | CNC[C@H](C[C@H](O)c1ccccc1)c1ccc2ccccc2c1 [compound 93]
higher inhibitory activity | NC[C@H](c1ccc2ccccc2c1)[C@@H](O)c1ccncc1Cl [compound 95]
lower inhibitory activity | CNC[C@@H](c1ccc2ccccc2c1)[C@H](O)c1ccccn1 [compound 99]
higher inhibitory activity | CNC[C@H](c1ccc(Cl)c(Cl)c1)[C@@H](O)c1ccccc1-c1cccs1 [compound 100]
higher potency | NCC(c1ccc2ccccc2c1)C(O)c1ccc(F)cc1F (stereo not drawn) [compound 107]
lower potency | CNC[C@@H](c1ccc(Cl)c(Cl)c1)[C@@H](O)c1cncc(OC)c1 [compound 109]
weak hNET potency | CNC[C@@H](c1ccc(Cl)c(Cl)c1)[C@@H](O)c1ccccc1 [compound 114]
lower potency | NC[C@@H](c1ccc2ccccc2c1)C(O)c1ccncc1Cl (stereo partly drawn) [compound 118]
lower inhibitory activity | CNC[C@@H](c1ccc(Cl)c(Cl)c1)[C@@H](O)c1cccc(SC)c1 [compound 120]
lower potency | CNC[C@@H](c1ccc(Cl)c(Cl)c1)[C@@H](O)c1cccc(NS(=O)(=O)C(F)(F)F)c1 [compound 121]
lower potency | NC[C@@H](c1ccc2ccccc2c1)[C@@H](O)c1ccc(Cl)nc1 [compound 126]
higher inhibitory activity | CNC[C@H](c1ccc(Cl)c(Cl)c1)[C@@H](O)c1cccc(NS(=O)(=O)C(F)(F)F)c1 [compound 127]
more potent | NC[C@@H](Cc1ccccc1O)c1ccc2ccccc2c1 [compound 133]
more potent | CNC[C@H](c1ccc2ccccc2c1)[C@@H](O)c1cc(F)cc(F)c1 [compound 141]
higher potency | CNC[C@H](c1ccc2ccccc2c1)[C@H](O)c1ccc2c(c1)OCCO2 [compound 143]
lower potency | CNC[C@@H](c1ccc(Cl)c(Cl)c1)[C@@H](O)c1cccc(OC)n1 [compound 157]

— US9944618B2, “Inhibiting neurotransmitter reuptake” (Mayo Foundation for Medical Education and Research, priority 2013, dated 2018)
